Assay results: patent US12421225B2, “Heteroaromatic amide derivative and medicament containing the same” (KAKEN PHARMACEUTICAL CO., LTD., priority 2018, dated 2025)

Tests used:
human Nav1.7 = human Nav1.7 (Homo sapiens (Human), UniProt Q15858); experiment: Human Nav1.7 inhibitory activity evaluation (automated patch clamp QPatch16X, HEK293A cells stably expressing human Nav1.7 and human Navβ1); assay type: cell-based
How it was run: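 IC50 calculated from the concentration-response of inward current evoked by the second −10 mV, 50 ms depolarisation, which follows a 15 s conditioning step at roughly 30-40% inactivation and a 100 ms −120 mV interval. Cells: HEK293A expressing human Nav1.7/Navβ1, automated patch clamp, room temperature, 0.1% DMSO final.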

human Nav1.5 = human Nav1.5 (Homo sapiens (Human), UniProt Q14524); experiment: Human Nav1.5 inhibitory activity evaluation (automated patch clamp QPatch16X, HEK293 cells stably expressing human Nav1.5); assay type: cell-based
How it was run: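 IC50 derived from concentration-response of inward current at the 20th of 20 action-potential-mimicking pulses (holding −80 mV, leak corrected with −100 mV step). HEK293 cells stably expressing human Nav1.5, room temperature, extracellular pH 7.4, intracellular CsF-based pH 7.3, 0.1% DMSO.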

[1] = human Nav1.7, automated patch clamp
[2] = human Nav1.5, automated patch clamp
[3] = HEK293A cells stably expressing human Nav1.7 and human Navβ1, automated patch clamp QPatch16X
[4] = HEK293 cells stably expressing human Nav1.5, automated patch clamp QPatch16X

Chain of human Nav1.5 (Q14524 whole entry): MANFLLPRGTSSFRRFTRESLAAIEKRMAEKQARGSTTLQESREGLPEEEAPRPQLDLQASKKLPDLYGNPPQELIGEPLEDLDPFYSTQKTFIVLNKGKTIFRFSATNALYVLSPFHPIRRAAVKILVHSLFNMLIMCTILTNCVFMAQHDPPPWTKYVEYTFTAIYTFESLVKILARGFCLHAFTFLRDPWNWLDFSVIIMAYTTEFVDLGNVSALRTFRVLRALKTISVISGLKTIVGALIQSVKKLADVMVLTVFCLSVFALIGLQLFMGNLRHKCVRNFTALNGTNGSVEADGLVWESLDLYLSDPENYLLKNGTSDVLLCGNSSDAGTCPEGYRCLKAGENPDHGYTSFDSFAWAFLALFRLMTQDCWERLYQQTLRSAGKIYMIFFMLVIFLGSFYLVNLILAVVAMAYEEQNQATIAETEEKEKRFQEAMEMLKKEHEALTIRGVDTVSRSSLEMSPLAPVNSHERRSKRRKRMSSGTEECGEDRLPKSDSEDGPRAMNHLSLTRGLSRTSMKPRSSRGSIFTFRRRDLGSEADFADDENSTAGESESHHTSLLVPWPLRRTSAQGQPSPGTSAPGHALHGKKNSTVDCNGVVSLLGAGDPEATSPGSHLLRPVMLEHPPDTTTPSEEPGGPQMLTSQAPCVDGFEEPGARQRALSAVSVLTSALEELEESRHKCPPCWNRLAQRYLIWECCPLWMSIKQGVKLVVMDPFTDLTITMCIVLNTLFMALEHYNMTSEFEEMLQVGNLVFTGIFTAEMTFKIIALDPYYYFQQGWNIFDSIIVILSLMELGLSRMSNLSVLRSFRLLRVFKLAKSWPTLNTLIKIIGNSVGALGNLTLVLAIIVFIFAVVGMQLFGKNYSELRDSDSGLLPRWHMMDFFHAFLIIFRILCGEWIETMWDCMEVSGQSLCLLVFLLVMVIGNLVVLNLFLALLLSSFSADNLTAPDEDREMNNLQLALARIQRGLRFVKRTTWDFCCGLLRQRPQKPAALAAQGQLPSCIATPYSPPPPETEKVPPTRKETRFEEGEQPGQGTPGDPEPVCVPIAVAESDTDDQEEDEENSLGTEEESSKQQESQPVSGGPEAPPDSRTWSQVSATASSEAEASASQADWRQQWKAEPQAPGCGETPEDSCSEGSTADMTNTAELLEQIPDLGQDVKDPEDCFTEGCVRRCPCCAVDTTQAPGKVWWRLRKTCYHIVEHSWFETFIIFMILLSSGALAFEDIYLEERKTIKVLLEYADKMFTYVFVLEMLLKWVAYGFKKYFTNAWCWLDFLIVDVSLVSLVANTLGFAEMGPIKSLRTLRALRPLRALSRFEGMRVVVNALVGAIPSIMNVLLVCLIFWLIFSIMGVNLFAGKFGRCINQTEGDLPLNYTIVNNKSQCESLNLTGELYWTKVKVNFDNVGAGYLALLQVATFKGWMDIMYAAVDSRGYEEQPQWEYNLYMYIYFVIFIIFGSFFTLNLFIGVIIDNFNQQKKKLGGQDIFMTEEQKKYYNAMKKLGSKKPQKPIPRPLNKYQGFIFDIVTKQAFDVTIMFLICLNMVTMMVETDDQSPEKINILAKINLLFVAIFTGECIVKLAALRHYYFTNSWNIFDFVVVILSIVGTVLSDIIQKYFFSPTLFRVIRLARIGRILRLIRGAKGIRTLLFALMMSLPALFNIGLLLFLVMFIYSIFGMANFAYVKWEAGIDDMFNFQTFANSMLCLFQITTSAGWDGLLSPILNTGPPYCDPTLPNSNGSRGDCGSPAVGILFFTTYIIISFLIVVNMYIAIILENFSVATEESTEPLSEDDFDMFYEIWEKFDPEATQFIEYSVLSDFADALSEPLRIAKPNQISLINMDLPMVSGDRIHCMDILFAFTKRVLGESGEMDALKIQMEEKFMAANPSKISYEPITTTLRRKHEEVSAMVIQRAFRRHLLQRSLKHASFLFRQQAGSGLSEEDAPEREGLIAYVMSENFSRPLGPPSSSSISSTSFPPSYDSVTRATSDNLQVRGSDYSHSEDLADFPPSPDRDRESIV
Chain of human Nav1.7 (Q15858 whole entry): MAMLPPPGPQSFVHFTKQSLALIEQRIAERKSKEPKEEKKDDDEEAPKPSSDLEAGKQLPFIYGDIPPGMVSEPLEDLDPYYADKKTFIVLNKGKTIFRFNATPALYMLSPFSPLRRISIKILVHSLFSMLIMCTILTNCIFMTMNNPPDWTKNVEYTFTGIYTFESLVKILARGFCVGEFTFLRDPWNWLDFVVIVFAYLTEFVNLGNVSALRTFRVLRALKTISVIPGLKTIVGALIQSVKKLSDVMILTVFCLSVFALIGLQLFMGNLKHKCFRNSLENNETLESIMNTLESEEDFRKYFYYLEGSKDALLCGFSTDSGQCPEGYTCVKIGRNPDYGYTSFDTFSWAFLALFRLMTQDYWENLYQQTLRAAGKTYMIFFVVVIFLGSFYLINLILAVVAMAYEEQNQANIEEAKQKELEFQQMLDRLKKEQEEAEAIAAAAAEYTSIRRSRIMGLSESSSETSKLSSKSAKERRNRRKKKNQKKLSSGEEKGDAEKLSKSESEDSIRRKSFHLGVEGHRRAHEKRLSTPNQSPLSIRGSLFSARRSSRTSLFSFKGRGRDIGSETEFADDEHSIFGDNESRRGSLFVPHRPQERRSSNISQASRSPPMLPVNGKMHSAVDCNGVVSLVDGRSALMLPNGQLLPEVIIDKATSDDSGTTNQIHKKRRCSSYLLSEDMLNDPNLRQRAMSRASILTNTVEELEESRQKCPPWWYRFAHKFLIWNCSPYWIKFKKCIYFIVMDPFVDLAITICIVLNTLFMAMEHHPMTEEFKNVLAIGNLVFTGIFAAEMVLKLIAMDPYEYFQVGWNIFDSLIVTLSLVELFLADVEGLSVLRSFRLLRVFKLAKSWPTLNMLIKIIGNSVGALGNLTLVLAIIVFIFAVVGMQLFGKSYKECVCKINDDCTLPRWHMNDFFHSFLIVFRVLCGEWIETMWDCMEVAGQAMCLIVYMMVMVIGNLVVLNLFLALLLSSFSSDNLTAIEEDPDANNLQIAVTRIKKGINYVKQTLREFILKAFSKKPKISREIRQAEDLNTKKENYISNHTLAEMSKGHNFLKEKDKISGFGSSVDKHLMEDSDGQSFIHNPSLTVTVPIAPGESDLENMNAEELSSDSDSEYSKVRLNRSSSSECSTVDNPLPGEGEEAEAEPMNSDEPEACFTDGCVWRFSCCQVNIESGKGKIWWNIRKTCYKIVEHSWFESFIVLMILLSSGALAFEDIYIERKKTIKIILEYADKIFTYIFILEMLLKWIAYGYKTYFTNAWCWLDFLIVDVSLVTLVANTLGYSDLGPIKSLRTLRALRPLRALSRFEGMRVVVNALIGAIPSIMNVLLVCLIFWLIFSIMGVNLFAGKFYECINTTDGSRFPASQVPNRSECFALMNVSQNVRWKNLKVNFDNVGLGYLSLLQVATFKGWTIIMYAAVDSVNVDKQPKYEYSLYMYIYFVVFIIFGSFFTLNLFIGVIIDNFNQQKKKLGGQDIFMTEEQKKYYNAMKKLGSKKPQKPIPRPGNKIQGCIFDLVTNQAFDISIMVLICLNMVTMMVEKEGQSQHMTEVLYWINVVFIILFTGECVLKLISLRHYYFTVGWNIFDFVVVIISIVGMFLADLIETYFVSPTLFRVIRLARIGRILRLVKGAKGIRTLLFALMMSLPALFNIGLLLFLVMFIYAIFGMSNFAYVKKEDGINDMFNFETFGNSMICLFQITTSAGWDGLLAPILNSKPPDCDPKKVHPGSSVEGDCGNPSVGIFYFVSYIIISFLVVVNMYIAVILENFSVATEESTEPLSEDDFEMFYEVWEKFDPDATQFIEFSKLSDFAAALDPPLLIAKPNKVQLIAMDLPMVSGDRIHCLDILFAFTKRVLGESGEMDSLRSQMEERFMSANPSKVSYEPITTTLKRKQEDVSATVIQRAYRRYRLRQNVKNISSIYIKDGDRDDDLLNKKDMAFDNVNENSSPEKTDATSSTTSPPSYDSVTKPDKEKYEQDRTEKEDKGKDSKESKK
Chain of human Nav1.7 (Q07699 19-218 partner): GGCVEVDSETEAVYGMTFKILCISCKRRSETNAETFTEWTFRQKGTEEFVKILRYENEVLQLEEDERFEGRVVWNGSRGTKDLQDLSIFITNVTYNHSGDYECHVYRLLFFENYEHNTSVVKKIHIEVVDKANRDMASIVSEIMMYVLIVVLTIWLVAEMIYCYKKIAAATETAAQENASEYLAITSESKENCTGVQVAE

Row | SMILES | IC50 (human Nav1.7; [1]) | IC50 (human Nav1.5; [2]) | IC50 (human Nav1.7; [3]) | IC50 (human Nav1.5; [4])
1 | O=C(N[C@H]1COc2ccccc2C1)c1cc2n(n1)CCN(S(=O)(=O)c1cccc(C(F)(F)F)c1)C2 [Example 277] | < 10000 nM | ≥ 3000 nM |  | 
2 | O=C(N[C@H]1COc2ccc(CCOC(F)(F)F)cc2C1)c1cc2n(n1)CC(C(F)(F)F)O2 (some centres unmarked) [Example 447] | < 1000 nM | ≥ 3000 nM |  | 
3 | O=C(N[C@H]1COc2ccc(C(F)(F)F)cc2C1)c1nn2c(c1C(O)c1ccccn1)COCC2 (some centres unmarked) [Example 530] | < 10000 nM | ≥ 3000 nM |  | 
4 | N#Cc1ccc2c(c1)C[C@@H](NC(=O)c1cc3n(n1)CC(CCSCC(F)(F)F)O3)CO2 (some centres unmarked) [Example 243] | < 1000 nM | ≥ 3000 nM |  | 
5 | O=C(N[C@H]1COc2ccc(Br)cc2C1)c1cc2n(n1)CCC(c1ccccc1F)O2 (some centres unmarked) [Example 71] |  |  | < 1000 nM | < 1000 nM
6 | O=C(N[C@H]1COc2ccc(Cl)cc2C1)c1cc2n(n1)CCC(CN1CCOCC1)O2 (some centres unmarked) [Example 122] |  |  | < 10000 nM | ≥ 3000 nM
7 | O=C(N[C@H]1COc2ccc(Cl)cc2C1)c1cc2n(n1)CC(CCn1cccn1)O2 (some centres unmarked) [Example 451] | < 1000 nM | 1000 to 3000 nM |  | 
8 | O=C(NC1COc2cccc(Cl)c2C1)c1cc2n(n1)CCC(c1ccccc1)O2 (centres unmarked) [Example 77] |  |  | < 1000 nM | ≥ 3000 nM
9 | O=C(N[C@H]1COc2ccc(COCC(F)(F)F)cc2C1)c1cc2n(n1)CC(COC(F)(F)F)O2 (some centres unmarked) [Example 195] | < 1000 nM | ≥ 3000 nM |  | 
10 | COc1cccc(-c2c(C(=O)N[C@H]3COc4ccccc4C3)nc3n2CCCC3)n1 [Example 303] | < 1000 nM | 1000 to 3000 nM |  | 
11 | N#Cc1ccc2c(c1)C[C@@H](NC(=O)c1cc3n(n1)CC(CCOC1CCC1)O3)CO2 (some centres unmarked) [Example 470] | < 1000 nM | 1000 to 3000 nM |  | 
12 | CN1Cc2nc(C(=O)N[C@H]3COc4ccccc4C3)cn2CC1CCC1CCCC1 (some centres unmarked) [Example 52] |  |  | < 1000 nM | 1000 to 3000 nM
13 | O=C(N[C@H]1COc2ccc(C(F)F)cc2C1)c1cn2c(n1)CCC(C(F)(F)F)C2 (some centres unmarked) [Example 6] |  |  | < 10000 nM | 1000 to 3000 nM
14 | N#Cc1ccc2c(c1)C[C@@H](NC(=O)c1cc3n(n1)CC(CCCOCC(F)(F)F)O3)CO2 (some centres unmarked) [Example 245] | < 1000 nM | 1000 to 3000 nM |  | 
15 | Cc1ccc(-c2ccc3c(c2)C[C@@H](NC(=O)c2cc4n(n2)CCC(C(F)(F)F)O4)CO3)cn1 (some centres unmarked) [Example 175] | < 10000 nM | ≥ 3000 nM |  | 
16 | O=C(N[C@H]1COc2ccc(-c3ccccn3)cc2C1)c1cc2n(n1)CCC(COCC1CC1)O2 (single isomer, unassigned) [111 (isomer A)] |  |  | < 1000 nM | 1000 to 3000 nM
17 | O=C(N[C@H]1COc2ccc(CC(F)F)cc2C1)c1cc2n(n1)CC(COC(F)(F)F)O2 (some centres unmarked) [Example 197] | < 1000 nM | ≥ 3000 nM |  | 
18 | COc1cccc(C2CCc3nc(C(=O)N[C@H]4COc5ccccc5C4)cn3C2)n1 (some centres unmarked) [Example 27] |  |  | < 1000 nM | < 1000 nM
19 | O=C(N[C@H]1COc2ccc(Br)cc2C1)c1cn2c(n1)CCC(C(F)(F)F)C2 (some centres unmarked) [Example 5] |  |  | < 1000 nM | 1000 to 3000 nM
20 | O=C(N[C@H]1COc2ccc(COCC(F)(F)F)cc2C1)c1cc2n(n1)CCC(C1CCOCC1)O2 (single isomer, unassigned) [615 (isomer A)] | < 1000 nM | 1000 to 3000 nM |  | 
21 | Cn1ccc(-c2ccc3c(c2)C[C@@H](NC(=O)c2cc4n(n2)CC(CCOC(F)(F)F)O4)CO3)n1 (some centres unmarked) [Example 212] | < 1000 nM | ≥ 3000 nM |  | 
22 | O=C(N[C@H]1COc2ccccc2C1)c1nc2n(c1-c1ccccc1)CCN(CC(F)(F)F)C2 [Example 338] | < 10000 nM | ≥ 3000 nM |  | 
23 | O=C(N[C@H]1COc2ccc(Cl)cc2C1)c1cc2n(n1)CC(CCN1CC(F)(F)C1)O2 (single isomer, unassigned) [234 (isomer B)] | < 1000 nM | < 1000 nM |  | 
24 | O=C(N[C@H]1COc2ccc(CC(F)F)cc2C1)c1cc2n(n1)CCC(COC(F)(F)F)O2 (single isomer, unassigned) [136 (isomer B)] |  |  | < 1000 nM | 1000 to 3000 nM
25 | O=C(N[C@H]1COc2ccc(COCC(F)(F)F)cc2C1)c1cc2n(n1)CCC(C1CCOCC1)O2 (single isomer, unassigned) [615 (isomer B)] | < 1000 nM | ≥ 3000 nM |  | 
26 | CC(F)(F)C1CCn2nc(C(=O)N[C@H]3COc4ccc(Cl)cc4C3)cc2O1 (some centres unmarked) [Example 167] | < 1000 nM | 1000 to 3000 nM |  | 
27 | O=C(N[C@H]1COc2ccc(C(F)(F)F)cc2C1O)c1cc2n(n1)CC(CCCOCC(F)(F)F)O2 (single isomer, unassigned) [603 (isomer B)] | < 1000 nM | ≥ 3000 nM |  | 
28 | O=C(N[C@H]1COc2ccc(Cl)cc2C1)c1cc2n(n1)CC(CCN1CC(F)(F)C1)O2 (some centres unmarked) [Example 233] | < 1000 nM | < 1000 nM |  | 
